Laboratory results taken from patent US20210324357A1, “DEGRADATION DOMAIN MODIFICATIONS FOR SPATIO-TEMPORAL CONTROL OF RNA-GUIDED NUCLEASES” (THE BRIGHAM AND WOMEN'S HOSPITAL, INC., priority 2018, published 2021).
Entries after “also recorded” stand apart in the source; their conditions may differ.

Tests used:
[1] = system: FKBP-Cas9 in U2OS.eGFP-PEST cells; test: Analysis of Cas9 nuclease activity via genomic eGFP-PEST disruption in U2OS cells; format: cell-based, human; details: for NtLp 2xFKBP Cas9 activity (% eGFP disruption): increasing amount of degrader 1.4-1000 nM
Source text: In some embodiments, a quantitative human cell-based reporter assay that enables rapid quantitation of targeted nuclease activities is used to characterize off-target cleavage of Cas9-based RNA guided endonucleases. In this assay, the activities of nucleases targeted to a single integrated EGFP reporter gene can be quantified by assessing loss of fluorescence signal in human U2OS.EGFP cells caused by inactivating frameshift insertion/deletion (indel) mutations introduced by error prone non-homologous end-joining (NHEJ) repair of nuclease-induced double-stranded breaks (DSBs).
In one protocol, U2OS.EGFP cells harboring a single integrated copy of an EGFP-PEST fusion gene are cultured (see e.g., Reyon et al., Nat Biotech 30, 460-465 (2012), which is herein incorporated by reference in its entirety). For transfections, 200,000 cells are nucleofected with gRNA expression plasmid and pJDS246 together with 30 ng of a Td-tomato-encoding plasmid using the SE Cell Line 4D-Nucleofector™ X Kit (Lonza) according to the manufacturer's protocol. Cells are analyzed 2 days post-transfection using a BD LSRII flow cytometer. Transfections for optimizing gRNA/Cas9 plasmid concentration are performed in triplicate and all other transfections are performed in duplicate.
In plasmid delivery, approximately 200,000 U20S.eGFP-PEST cells were nucleofected with 300 ng of Cas9 and sgRNA expression plasmids (NtLp 2xFKBP, NtCt 2xFKBP, LpCt 2xFKBP, and 3xFKBP) using the SE Cell Line 4D-Nucleofector X Kit (Lonza) according to the manufacturer's protocol. Approximately 12,000 transfected cells per well were plated in a 96-well plate (Corning 3904) and incubated with dTAG 47 at 1000 nM, 333 nM, 111 nM, 37 nM, 12 nM, 4 nM, 1.4 nM at 37° C. for 48 hrs. In RNP delivery, 15 pmol pre-formed RNP (Cas9 and NtLp 2xFKBP) were nucleofected and followed the protocol described above. Cells were fixed using 4% paraformaldehyde and HCS NuclearMask Blue Stain. The plate was imaged with IXM ImageXpress Automated High Content Microscope at 4× magnification under two excitation channels (blue and green). Images were analyzed in the MetaXpress software.

[2] = system: FKBP-SpCas9 constructs (NtLp 2xFKBP, NtCt 2xFKBP, LpCt 2xFKBP, 3xFKBP) in HEK293FT cells; test: Western blot analysis of FKBP-SpCas9 degradation; format: cell-based; details: increasing amount of dTAG-47 (0.04-3.3 uM), 24h, tubulin loading control
Experimental: HEK293 or NIH3T3 were transfected with pX330 FKBP-Cas9 plasmid using Lipofectamine 2000 or Lipofectamine 3000 to the manufacturer's protocol accordingly. 24 hours after transfection, cells transiently expressing the different constructs (NtLp 2xFKBP, NtCt 2xFKBP, LpCt 2xFKBP, and 3xFKBP) were incubated in either the absence or the presence of dTAG 47 (3.3 uM, 1.1 uM, 0.37 uM, 0.12 uM, 0.042 uM) for 24h before harvesting. Cells were washed with PBS and proceed to lysis in RIPA buffer. The cell suspensions were centrifuged at 16,000 g for 30 min at 4° C. 20 ug of supernatant were electrophoresed on 4-12% Bis-Tris gel with SDS-Tris running buffer. The protein bands were transferred to nitrocellulose membrane at 100V for 1 h and probed with mouse anti-Cas9 antibody (Abcam) and rabbit anti-tubulin as loading control (Abcam). After blocking and incubation with primary antibodies, membranes were incubated with 680-nm or 800-nm fluorophore labeled secondary antibodies. Protein bands were detected using LI-COR Bioisciences Odyssey Imager and analyzed by Image Studeio Lite (LI-COR Biosciences).

[3] = system: NtLp 2xFKBP Cas9 RNP in S2 cells; test: Analysis of Cas9 nuclease activity in Drosophila S2 cell via genomic eGFP disruption; format: cell-based; details: RNP delivery, dTAG-47 1000 nM, 10 nM, 0 nM, 48 hrs
Experimental: Approximately 200,000 S2 cells were nucleofected with 15 pmol pre-formed Cas9 RNP (NtLp 2xFKBP) using SE Cell Line 4S-Nucleofector X Kit (Lonza). Approximately 70,000 transfected S2 cells per well were plated in 96-well plate and incubated with 1000 nM and 10 nM dTAG 47. After incubation at room temperature for 48 hrs, cells were stained with HCS Nuclear Mask Blue stain, and imaged with IXM ImageXpress Automated Hifh Content Microscope at 4× magnification under two excitation channels (blue and green).

| SMILES | potency in reducing NtLp 2xFKBP Cas9 activity ([1]; U2OS cells, RNP delivery, comparison of FIG. 4A and 4B) | NtLp 2xFKBP Cas9 activity (% eGFP disruption) ([1]; U2OS cells, RNP delivery) | potency in inducing degradation (eGFP disruption assay of 4 FKBP-Cas9) ([1]; plasmid delivery, comparison of FIG. 3A and 3B) | Cas9 protein detected (degradation of FKBP-SpCas9) [2] | potency in reducing Cas9 activity ([1]; plasmid delivery and RNP delivery (FIGS. 3A-3B, 4A-4B)) | eGFP disruption by NtLp 2xFKBP Cas9 RNP [3] |
| --- | --- | --- | --- | --- | --- | --- |
| CC[C@H](C(=O)N1CCCC[C@H]1C(=O)O[C@H](CCc1ccc(OC)c(OC)c1)c1ccccc1OCC(=O)NCCCCCCOc1cccc2c1C(=O)N(C1CCC(=O)NC1=O)C2=O)c1cc(OC)c(OC)c(OC)c1 (stereo partly shown) [dTAG-13] | less potent than dTAG-47 | reduced but not as significant | less potent than dTAG-47 | – | – | – |
| CC[C@H](C(=O)N1CCCC[C@H]1C(=O)O[C@H](CCc1ccc(OC)c(OC)c1)c1ccccc1OCC(=O)NCCCCCCCCNc1ccc2c(c1)C(=O)N(C1CCC(=O)NC1=O)C2=O)c1cc(OC)c(OC)c(OC)c1 (stereo partly shown) [dTAG-47] | – | reduced significantly | – | less Cas9 protein was detected; also recorded: less Cas protein was detected | more potent in reducing Cas9 activity | less eGFP disrupted |
